These results are taken from patent US7727753B2, “Plant dihydroorotase” (BASF Aktiengesellschaft, priority 1999, dated 2010).

For the experiment, the system named is potato dihydroorotase. Description: Measurement of the dihydroorotase activity (dihydroorotate-dehydrogenase-coupled photometric assay at 340 nm, or colorimetric assay). It counts as biochemical, Solanum tuberosum. As to conditions: activity measured in the assay systems described; recombinant enzyme expressed in E. coli. From the text:
The enzymatic detection developed to date for measuring the dihydroorotase activity by the method of Mazus and Buchowicz, (Acta Biochimica Polonica (1968), 15(4), 317-325) is based on detecting the orotate formed at 280 nm in a dihydroorotate-dehydrogenase-coupled reaction mixture. Prerequisite for doing so is a high activity of the auxiliary enzyme, viz. dihydroorotate dehydrogenase. […] In order to be able to carry out a mass screening, the specific dihydroorotate dehydrogenase activity must be at least ten times higher than is the case in the commercial preparation. […] The enzyme activity was determined in a photometric assay by measurement in a photometer (Uvikon 933, Kontron) at 340 nm. […] In each case […] of the resulting enzyme fraction was made up with buffer to […] and measured against a reference cell containing […] reaction buffer and 100 ml of a protein homogenate of untransformed E. coli culture. […] Identical quantities of total protein were employed for measuring the untransformed or transformed E. coli extracts. […] Alternatively, the dihydroorotase may also be measured in a less sensitive colorimetric assay by the method of Prescott and Jones (Anal. Biochem. (1969) 32, 408-419) without being coupled to dihydroorotate dehydrogenase. […]

Consider `O=C1NC(=S)C[C@@H](C(=O)O)N1` [6-L-thiodihydroorotate], for which the potato dihydroorotase activity result is given as “can be reduced”. The entry for `O=C1NC(C(=O)O)=CC(C(=O)O)N1` (centres unmarked) [2-oxo-1,2,3,6-tetrahydropyrimidine-4,6-dicarboxylate] is “can be reduced”.
